Like-named read-outs stand apart in the source and are kept apart here.
Experiments:
[1] = test system: Key Broadleaf Weed and Crop Species; experiment: Post-emergent Test II herbicidal activity (Table 5); type: in vivo; conditions: post-emergence, 336 h, post-emergent, 14 days after application; for pest or weed control at 70 g/ha: 70 g ai/ha; for pest or weed control at 140 g/ha: 140 g ai/ha
Method in brief: (§1)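 Injury was rated visually 14 d after treatment on a 0–100% scale against untreated controls. Test compounds, formulated with crop oil concentrate and surfactant and serially diluted down to 1/16× of the top rate, were applied by track sprayer at 187 L/ha onto first- to second-true-leaf seedlings.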

[2] = test system: Key Grass and Sedge Weeds as well as Grass Crops; experiment: Post-emergent Test II herbicidal activity (Table 6); type: in vivo; conditions: post-emergence, 336 h; for pest or weed control at 70 g/ha: application rate 70 g ai/ha; for pest or weed control at 140 g/ha: application rate 140 g ai/ha
Method in brief: as §1

[3] = ABUTH: velvetleaf (Abutilon theophrasti), read-out: Visual Growth Reduction (%) 14 Days After Application ABUTH
[4] = AMARE: redroot pigweed (Amaranthus retroflexus), read-out: Visual Growth Reduction (%) 14 Days After Application AMARE
[5] = BRSNN: oilseed-rape, canola (Brassica napus), read-out: Visual Growth Reduction (%) 14 Days After Application BRSNN
[6] = CHEAL: lambsquarters (Chenopodium album), read-out: Visual Growth Reduction (%) 14 Days After Application CHEAL
[7] = EPHHL: wild poinsettia (Euphorbia heterophylla), read-out: Visual Growth Reduction (%) 14 Days After Application EPHHL
[8] = HELAN: sunflower (Helianthus annuus), read-out: Visual Growth Reduction (%) 14 Days After Application HELAN
[9] = VIOTR: wild pansy (Viola tricolor), read-out: Visual Growth Reduction (%) 14 Days After Application VIOTR
[10] = Triticum aestivum, TRZSS (wheat), read-out: Visual Growth Reduction (%) 14 Days After Application, TRZSS
[11] = CYPES: yellow nutsedge (Cyperus esculentus), read-out: Visual Growth Reduction (%) 14 Days After Application, CYPES
[12] = DIGSA: crabgrass (Digitaria sanguinalis), read-out: Visual Growth Reduction (%) 14 Days After Application, DIGSA
[13] = ECHCG: barnyardgrass (Echinochloa crus-galli), read-out: Visual Growth Reduction (%) 14 Days After Application, ECHCG
[14] = ORYSA: rice (Oryza sativa), read-out: Visual Growth Reduction (%) 14 Days After Application, ORYSA
[15] = SETFA: giant foxtail (Setaria faberi), read-out: Visual Growth Reduction (%) 14 Days After Application, SETFA
[16] = SORVU: grain sorghum (Sorghum vulgare), read-out: Visual Growth Reduction (%) 14 Days After Application, SORVU
[17] = ZEAMX: maize, corn (Zea mays), read-out: Visual Growth Reduction (%) 14 Days After Application, ZEAMX
[18] = TRZSS (wheat, Triticum aestivum), read-out: Visual Growth Reduction (%) 14 Days After Application, TRZSS

SMILES | melting point [°C] | pest or weed control at 70 g/ha [1, 3] [%] | pest or weed control at 140 g/ha [1, 3] [%] | pest or weed control at 70 g/ha [1, 4] [%] | pest or weed control at 140 g/ha [1, 4] [%] | pest or weed control at 70 g/ha [1, 5] [%] | pest or weed control at 140 g/ha [1, 5] [%] | pest or weed control at 70 g/ha [1, 6] [%] | pest or weed control at 140 g/ha [1, 6] [%] | pest or weed control at 70 g/ha [1, 7] [%] | pest or weed control at 140 g/ha [1, 7] [%] | pest or weed control at 70 g/ha [1, 8] [%] | pest or weed control at 140 g/ha [1, 8] [%] | pest or weed control at 70 g/ha [1, 9] [%] | pest or weed control at 140 g/ha [1, 9] [%] | pest or weed control at 70 g/ha [2, 11] [%] | pest or weed control at 140 g/ha [2, 11] [%] | pest or weed control at 70 g/ha [2, 12] [%] | pest or weed control at 140 g/ha [2, 12] [%] | pest or weed control at 70 g/ha [2, 13] [%] | other results
C=Cc1c(N)nc(-c2ccc(F)c(F)c2F)nc1C(=O)O [Compound 191, 6-Amino-2-(2,3,4-trifluorophenyl)-5-vinylpyrimidine-4-carboxylic acid] | 154 to 157 | 60 to 74 | 95 to 100 | 95 to 100 | 95 to 100 | 95 to 100 | 95 to 100 | 95 to 100 | 95 to 100 | 95 to 100 | 95 to 100 | 95 to 100 | 95 to 100 | 45 to 59 | 45 to 59 | 0 to 29 | 60 to 74 | 60 to 74 | 75 to 84 | 85 to 94 | pest or weed control at 70 g/ha [2, 10]: 0 to 29%; pest or weed control at 140 g/ha [2, 10]: 30 to 44%; pest or weed control at 140 g/ha [2, 13]: 75 to 84%; pest or weed control at 70 g/ha [2, 14]: 0 to 29%; pest or weed control at 140 g/ha [2, 14]: 0 to 29%; pest or weed control at 70 g/ha [2, 15]: 75 to 84%; pest or weed control at 140 g/ha [2, 15]: 75 to 84%; pest or weed control at 70 g/ha [2, 16]: 45 to 59%; pest or weed control at 140 g/ha [2, 16]: 45 to 59%; pest or weed control at 70 g/ha [2, 17]: 45 to 59%; pest or weed control at 140 g/ha [2, 17]: 60 to 74%
COC(=O)c1nc(-c2cc(F)c(C(F)F)cc2F)nc(N)c1OC [Compound 193] | 127.9 to 129.2 | 60 to 74 | 75 to 84 | 75 to 84 | 95 to 100 | 60 to 74 | 60 to 74 | 85 to 94 | 95 to 100 | 85 to 94 | 95 to 100 | 60 to 74 | 75 to 84 | 0 to 29 | 30 to 44 | 30 to 44 | 45 to 59 | 0 to 29 | 0 to 29 | 0 to 29 | pest or weed control at 140 g/ha [2, 13]: 0 to 29%; pest or weed control at 70 g/ha [2, 14]: 0 to 29%; pest or weed control at 140 g/ha [2, 14]: 0 to 29%; pest or weed control at 70 g/ha [2, 15]: 0 to 29%; pest or weed control at 140 g/ha [2, 15]: 45 to 59%; pest or weed control at 70 g/ha [2, 16]: 0 to 29%; pest or weed control at 140 g/ha [2, 16]: 45 to 59%; pest or weed control at 70 g/ha [2, 18]: 0 to 29%; pest or weed control at 140 g/ha [2, 18]: 30 to 44%; pest or weed control at 70 g/ha [2, 17]: 0 to 29%; pest or weed control at 140 g/ha [2, 17]: 0 to 29%
C=Cc1c(N)nc(-c2ccc(F)c(F)c2F)nc1C(=O)OC [Compound 197, Methyl 6-amino-2-(2,3,4-trifluorophenyl)-5-vinylpyrimidine-4-carboxylate] | 156 to 158 | 95 to 100 | 95 to 100 | 95 to 100 | 95 to 100 | 95 to 100 | 85 to 94 | 95 to 100 | 95 to 100 | 95 to 100 | 95 to 100 | 85 to 94 | 85 to 94 | 60 to 74 | 75 to 84 | 60 to 74 | 60 to 74 | 45 to 59 | 60 to 74 | 0 to 29 | pest or weed control at 70 g/ha [2, 10]: 0 to 29%; pest or weed control at 140 g/ha [2, 10]: 0 to 29%; pest or weed control at 140 g/ha [2, 13]: 75 to 84%; pest or weed control at 70 g/ha [2, 14]: 0 to 29%; pest or weed control at 140 g/ha [2, 14]: 0 to 29%; pest or weed control at 70 g/ha [2, 15]: 0 to 29%; pest or weed control at 140 g/ha [2, 15]: 0 to 29%; pest or weed control at 70 g/ha [2, 16]: 60 to 74%; pest or weed control at 140 g/ha [2, 16]: 60 to 74%; pest or weed control at 70 g/ha [2, 17]: 60 to 74%; pest or weed control at 140 g/ha [2, 17]: 60 to 74%

— patent US9113629B2, “4-amino-6-(4-substituted-phenyl)-picolinates and 6-amino-2-(4-substituted-phenyl)-pyrimidine-4-carboxylates and their use as herbicides” (DOW AGROSCIENCES LLC, priority 2013, dated 2015)
